Experimental findings from US7084136B2, “Drug composition antagonistic to both PGD2/TXA2 receptors” (Shionogi & Co., Ltd., priority 2000, dated 2006) are described below.

Data set [1] concerns the target T1, PGD2 receptor (Homo sapiens, UniProt Q13258).
T1 construct: A suspension adjusted to contain the platelets at a final concentration of 5×10^8/ml was warmed at 37° C; endogenous in cells; host or cells: washed human platelets from a healthy volunteer
T1 sequence (Q13258 1-359): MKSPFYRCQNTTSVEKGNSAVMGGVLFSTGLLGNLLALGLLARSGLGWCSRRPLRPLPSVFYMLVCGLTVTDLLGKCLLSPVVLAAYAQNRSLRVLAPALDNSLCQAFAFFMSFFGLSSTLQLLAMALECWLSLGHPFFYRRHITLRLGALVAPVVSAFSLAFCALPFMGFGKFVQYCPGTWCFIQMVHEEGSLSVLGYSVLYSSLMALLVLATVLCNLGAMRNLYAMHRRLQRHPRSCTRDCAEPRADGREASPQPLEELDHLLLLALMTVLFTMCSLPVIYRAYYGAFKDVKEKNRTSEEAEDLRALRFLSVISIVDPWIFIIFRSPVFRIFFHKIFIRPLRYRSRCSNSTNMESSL
Kind of data set: Binding activity to PGD2 receptor ([3H]PGD2, human platelet membrane fraction). The note with it: human platelet membrane fraction; read-out: Binding activity to PGD2 receptor in human platelet membrane fraction IC50. Here is the method: Experiment 1 Binding Activity to PGD2 Receptor
(§1) (1) Preparation of Human Platelet Membrane Fraction
Blood was collected using a plastic syringe containing 3.8% sodium citrate from the vein of healthy volunteers (adult male and female), then put into a plastic test tube and mixed by slow-reversion. The sample was then centrifuged at 1800 rpm, for 10 min at room temperature, and the supernatant containing PRP (platelet-rich plasma) was collected. The PRP was re-centrifuged at 2300 rpm, for 22 min at room temperature to obtain platelets. The platelets were homogenized using a homogenizer (Ultra-Turrax) followed by centrifugation 3 times at 20,000 rpm, 10 min at 4° C. to obtain a platelet membrane fraction. After protein determination, the membrane fraction was adjusted to 2 mg/ml and preserved in a refrigerator at −80° C. until using for the binding test.
(2) Binding to PGD2 Receptor
To a binding-reaction solution (50 mM Tris/HCl, pH 7.4, 5 mM MgCl2) (0.2 ml) were added the human platelet membrane fraction (0.1 mg) and 5 nM [^3H]PGD2 (115 Ci/mmol), and the mixture was reacted at 4° C. for 90 min. After the reaction, the mixture was filtered through a glass fiber filter paper and washed several times with cooled physiological saline, then the radioactivity retained on the filter paper was measured. The specific-binding ratio was calculated by subtracting the non-specific binding ratio which is the radioactivity similarly measured in the presence of 10 μM PGD2 from the total binding. The inhibitory activity of each compound was expressed as the concentration required for 50% inhibition (IC50), which was determined by depicting a substitution curve by plotting the binding ratio (%) in the presence of each compound, where the binding ratio in the absence of a test compound is 100%.

The target in another data set is T2, TXA2 receptor (Homo sapiens, UniProt P21731).
T2 construct: The human platelet membrane fraction was prepared in accordance with Experiment 1 (1); from tissue; host or cells: human platelet membrane fraction from blood of healthy volunteers
T2 sequence (P21731 1-343): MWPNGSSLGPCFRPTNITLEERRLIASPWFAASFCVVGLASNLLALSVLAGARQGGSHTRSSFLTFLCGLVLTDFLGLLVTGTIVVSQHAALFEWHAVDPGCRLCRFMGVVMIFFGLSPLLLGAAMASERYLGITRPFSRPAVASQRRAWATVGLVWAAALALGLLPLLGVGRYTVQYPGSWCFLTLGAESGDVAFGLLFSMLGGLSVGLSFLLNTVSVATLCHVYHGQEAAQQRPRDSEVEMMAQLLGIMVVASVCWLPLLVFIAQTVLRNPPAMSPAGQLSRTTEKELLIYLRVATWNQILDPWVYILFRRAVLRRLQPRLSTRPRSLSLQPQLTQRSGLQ
Kind of data set: Binding activity to TXA2 receptor ([3H](+)-S-145 sodium salt, human platelet membrane fraction). The following applies: human platelet membrane fraction; 2 nM [3H](+)-S-145 sodium salt; read-out: Binding activity to TXA2 receptor in human platelet membrane fraction IC50. On the procedure:
Experiment 2 Binding Activity to TXA2 Receptor
as §1
The human platelet membrane fraction was prepared in accordance with Experiment 1 (1).
(2) Binding to TXA2 Receptor
To a binding-reaction solution (50 mM Tris/HCl, pH 7.4, 10 mM MgCl2) (0.2 ml) were added the human platelet membrane fraction (0.05 mg) and 2 nM Sodium [^3H](+)-(5Z)-7-[3-endo-[(phenylsulfonyl)amino]bicyclo[2.2.1]hept-2-exo-yl]heptenoate (Japanese Patent Publication (Kokoku) No.79060/1993, hereinafter referred to as (+)-S-145 sodium salt) (26.4 Ci/mmol), and the mixture was reacted at room temperature for 90 min. After the reaction, the resultant mixture was filtered through a glass fiber filter paper and washed several times with cooled physiological saline, then the radioactivity retained on the filter paper was measured. The specific-binding ratio was calculated by subtracting the non-specific binding ratio (the radio activity similarly determined in the presence of 10 μM (+)-S-145 sodium salt) from the total binding. The inhibitory activity of each compound was expressed as the concentration required for 50% inhibition (IC50), which was determined by depicting a substitution curve by plotting the binding ratio (%) in the presence of each compound, where the binding ratio in the absence of a test compound is 100%.

In data set [2] the target is T1, PGD2 receptor. In words: Antagonistic activity against PGD2 receptor using human platelet (inhibition of PGD2-induced cAMP increase). The format is cell-based. The note with it: human platelet; 0.1 μM PGD2; read-out: Inhibitory activity for the increase of cAMP caused by PGD2 in human platelet IC50. On the procedure: Experiment 3 Evaluation of Antagonistic Activity Against PGD2 Receptor
Receptor Using Human Platelet
Peripheral blood was collected from a healthy volunteer using a syringe in which 1/9 volume of a citric acid/dextrose solution was previously added. The sample was subjected to centrifugation at 1200 rpm for 10 min to obtain the supernatant (PRP: platelet rich plasma). The resultant PRP was washed 3 times with a washing buffer and the number of platelets was counted with a micro cell counter. A suspension adjusted to contain the platelets at a final concentration of 5×10^8/ml was warmed at 37° C., then subjected to the pre-treatment with 3-isobutyl-1-methylxanthine (0.5 mM) for 5 min. To the suspension was added a test compound diluted at various concentration, and 10 minutes later, 0.1 μM PGD2 was added to induce the reaction 2 minutes later, hydrochloric acid was added to terminate the reaction. The platelet was destroyed with an ultrasonic homogenizer. After centrifugation, the cAMP in the supernatant was determined by radioimmunoassay. PGD2 receptor antagonism of a drug was evaluated as follows: the inhibition rate regarding cAMP increased by the addition of PGD2 was determined at each concentration, and the concentration of the drug required for 50% inhibition (IC50) was calculated.

Data set [3] is described as follows: Change of plasma concentration of drug in rat (half life of the disappearance after i.v. administration). It counts as in vivo. The following applies: Jcl-SD male rats, 0.5 to 2 mg/kg intravenously, unchanged compound. On the procedure: Experiment 4 Change of Plasma Concentration of Drug in Rat
Compound (0.5 to 2 mg/kg) was administered intravenously to Jcl-SD male rats.

Molecules are shown by their SMILES.

On to `O=C(O)CCC/C=C\C[C@H]1[C@@H]2CC[C@@H](C2)[C@@H]1NC(=O)c1ccc(S(=O)(=O)n2cccc2)s1` [I-1], for which the figures for the IC50 on PGD2 receptor [1], at TXA2 receptor and on PGD2 receptor [2] were 4.3 nM, 3 nM and 1.3 nM, respectively. In data set [3], the “half life of the disappearance” value is recorded as 9.4 min.
For the compound `O=C(O)COCCCC[C@H]1[C@@H]2CC[C@@H](C2)[C@@H]1NC(=O)c1ccc(S(=O)(=O)n2cccc2)s1` [I-7M-1a], the “half life of the disappearance” value in data set [3] came to 26.3 min.
For `O=C(O)CCC/C=C\C[C@H]1[C@@H]2CC[C@@H](C2)[C@@H]1NC(=O)c1ccc(Cc2cc3ccccc3o2)s1` [I-136], the IC50 at PGD2 receptor [1] worked out at 23 nM; at TXA2 receptor, 16 nM; at PGD2 receptor [2] it was 15 nM.
As for `O=C(O)CCC/C=C\C[C@H]1[C@@H]2CC[C@@H](C2)[C@@H]1NC(=O)c1csc2c(Cc3ccccc3)cccc12` [I-143], the half-inhibitory concentration (IC50) on PGD2 receptor [1] was found to be 2.7 nM; on TXA2 receptor, 28 nM; at PGD2 receptor [2], 1.9 nM. For the same compound, the “half life of the disappearance” value in data set [3] amounted to 4.7 min.
As to `O=C(O)CCC/C=C\C[C@H]1[C@@H]2CC[C@@H](C2)[C@@H]1NC(=O)c1ccc(Cc2ccc(OCc3ccccc3)c(O)c2)s1` [I-146], the concentration for half-maximal inhibition (IC50) on PGD2 receptor [1] is 44 nM; on TXA2 receptor, 19 nM; on PGD2 receptor [2], 73 nM.
For `O=C(O)CCC/C=C\C[C@H]1[C@@H]2CC[C@@H](C2)[C@@H]1NC(=O)c1cc2ccc(Cc3ccccc3)cc2s1` [I-160], in that order: 28 nM, 20 nM and 85 nM.
Consider `O=C(O)CCC/C=C\C[C@H]1[C@@H]2CC[C@@H](C2)[C@@H]1NC(=O)c1csc2c(Cc3cccs3)cccc12` [I-168], for which the 50% inhibitory concentration (IC50) on PGD2 receptor [1] stood at 0.46 nM; at TXA2 receptor it was 34 nM; at PGD2 receptor [2], 29 nM.
For `O=C(O)CCC/C=C\C[C@H]1[C@@H]2CC[C@@H](C2)[C@@H]1NC(=O)c1csc2c(Cc3ccsc3)cccc12` [I-169], in that order: 0.61 nM, 32 nM and 26 nM.
As for `O=C(O)CCC/C=C\C[C@H]1[C@@H]2CC[C@@H](C2)[C@@H]1NC(=O)c1csc2c(Cc3ccoc3)cccc12` [I-170], the concentration for half-maximal inhibition (IC50) at PGD2 receptor [1] was 0.92 nM; at TXA2 receptor it was 27 nM; on PGD2 receptor [2], 17 nM.
Taken in the same sequence, the figures for `O=C(O)CCC/C=C\C[C@H]1[C@@H]2CC[C@@H](C2)[C@@H]1NC(=O)c1ccc(Cc2csc3ccccc23)s1` [I-182] were 61 nM, 28 nM and 11 nM.
As for `CC1(C)[C@H]2C[C@H](C/C=C\CCCC(=O)O)[C@@H](NC(=O)c3ccc(S(=O)(=O)n4cccc4)s3)[C@@H]1C2` [II-1], the IC50 at PGD2 receptor [1] stood at 2 nM; at TXA2 receptor, 12 nM; on PGD2 receptor [2], 11 nM.
Taken in the same sequence, the figures for `CC1(C)[C@H]2C[C@H](C/C=C\CCCC(=O)O)[C@@H](NC(=O)c3ccc(S(=O)(=O)c4ccccc4)s3)[C@@H]1C2` [II-37] were 26 nM, 4.3 nM and 35 nM.
Turning to `CC1(C)[C@H]2C[C@H](C/C=C\CCCC(=O)O)[C@@H](NC(=O)c3ccc(S(=O)(=O)c4cccs4)s3)[C@@H]1C2` [II-47], the IC50 on PGD2 receptor [1] came out at 0.96 nM; on TXA2 receptor, 3.6 nM; at PGD2 receptor [2], 4 nM.
On to `Cc1cccn1S(=O)(=O)c1ccc(C(=O)N[C@@H]2[C@@H](C/C=C\CCCC(=O)O)C[C@H]3C[C@@H]2C3(C)C)s1` [II-55], for which the IC50 on PGD2 receptor [1] was 1.5 nM; at TXA2 receptor, 4.4 nM; on PGD2 receptor [2] it was 3.9 nM.
Regarding `CC1(C)[C@H]2C[C@H](C/C=C\CCCC(=O)O)[C@@H](NC(=O)c3ccc(Sc4cccs4)s3)[C@@H]1C2` [II-59], the IC50 amounted to 0.1 nM on PGD2 receptor [1], 14 nM at TXA2 receptor and 24 nM on PGD2 receptor [2]. Further, in data set [3], the “half life of the disappearance” value was 11.0 min.
Consider `Cc1cc(S(=O)(=O)c2ccc(C(=O)N[C@@H]3[C@@H](C/C=C\CCCC(=O)O)C[C@H]4C[C@@H]3C4(C)C)s2)cs1` [II-101], for which the IC50 came out at 72 nM on PGD2 receptor [1], 4 nM on TXA2 receptor and 45 nM at PGD2 receptor [2].
Taken in the same sequence, the figures for `CC1(C)[C@H]2C[C@H](C/C=C\CCCC(=O)O)[C@@H](NC(=O)c3ccc(S(=O)(=O)c4cccc(O)c4)s3)[C@@H]1C2` [II-117] were 22 nM, 2.6 nM and 24 nM.
For the compound `COc1ccccc1Cc1ccc(C(=O)N[C@@H]2[C@@H](C/C=C\CCCC(=O)O)C[C@H]3C[C@@H]2C3(C)C)s1` [II-126], the figures for the IC50 on PGD2 receptor [1], on TXA2 receptor and on PGD2 receptor [2] were 4.6 nM, 45 nM and 4 nM, respectively.
Taken in the same sequence, the figures for `CC1(C)[C@H]2C[C@H](C/C=C\CCCC(=O)O)[C@@H](NC(=O)c3ccc(Cc4cccc(-c5ccccc5)c4)s3)[C@@H]1C2` [II-138] were 32 nM, 72 nM and 25 nM.
